Experimental data: patent publication EP4775575A1, “COMPOUND USED AS CDK4 KINASE INHIBITOR AND USE THEREOF” (TYK Medicines, Inc., priority 2023, dated 2025)
pIC50: −log10 of the molar value. Like-named read-outs stand apart in the source and are kept apart here.

How the values were obtained:
[1] = test system: human ovarian cancer cells A2780; assay: Cell anti-proliferation assay (MTT), A2780; format: cell-based; conditions: incubated for 5 days
Experimental: (§1) Human breast cancer cells MCF-7, human ovarian cancer cells A2780, human mantle cell lymphoma cells JEKO-1. DMEM medium (Bio-Channel), DMSO (dimethyl sulfoxide), MTT (thiazolyl blue), 0.25% EDTA-Trypsin (trypsin digestive solution), 1×PBS (phosphate buffered saline, pH 7.2), 96-well plate (Corning), fetal bovine serum (FBS), 10,000 U/mL penicillin-G/streptomycin, high-speed refrigerated centrifuge (EPPENDORF 5810R), and microplate reader (Tecan Spark).
(§2) • A) Tumor cells were cultured in DMEM (high glucose, containing 10% FBS and 100 U/mL penicillin-G/streptomycin) at 37 °C, 5% CO2 and saturated humidity until 80-90% confluence. • B) The medium in the 10 cm culture dish was removed. • C) Cells were rinsed once with 10 mL of 1×PBS. • D) 4 mL of 0.25% EDTA-Trypsin was added, and the cells were digested in a 37 °C, 5% CO2 incubator for 5 minutes. The mixture was transferred to a 15 mL centrifuge tube, centrifuged at 200 g for 5 minutes, and the supernatant was discarded to obtain cell pellet. • E) The cells were resuspended in 4 mL of DMEM medium, counted, and adjusted to 50,000 cells/mL. • F) 100 µL of cell suspension was added to each well of a 96-well plate, and the plate was incubated overnight at 37 °C in a 5% CO2 incubator.
(§3) • A) Gradient dilution solutions of the test compounds were prepared: the test compound was prepared into a 1 mM stock solution. Then 1.5 µL of the stock solution was dissolved in 1.5 mL of DMSO-free medium, followed by 3-fold serial gradient dilution with medium containing 0.1% DMSO to give 9 concentrations.
(§4) • A) The cell culture plate was taken out, and 10 µL of 5 mg/mL MTT was added in a biological safety cabinet; • B) The plate was returned to the incubator and incubated for another 3 hours; • C) The cell culture plate was taken out and the medium was removed, 100 µL of isopropanol (containing 0.4 mM HCl, 0.1% NP-40) was added, and the plate was shaken at room temperature for 30 minutes; • D) The absorbance at 570 nm was measured using a TECAN microplate reader.

[2] = test system: Human breast cancer cells MCF-7; assay: Cell anti-proliferation assay (MTT), MCF-7; format: cell-based; conditions: MCF-7 cells, incubated for 5 days
Experimental: as §1, §2, §3, §4

[3] = test system: human mantle cell lymphoma cells JEKO-1; assay: Cell anti-proliferation assay (MTT), JEKO-1; format: cell-based; conditions: JEKO-1 cells, incubated for 5 days
Experimental: as §1, §2, §3, §4

[4] = molecular target: T1, CDK6/CyclinD3 (Homo sapiens, UniProt Q00534); assay: Kinase activity assay (MSA, EZ Reader) against CDK6; format: biochemical; conditions: CDK6/CyclinD3 5.00 nM, ATP 350 µM, FL-Peptide34, 10mM MgCl2
T1 construct: purchased Carna 04-107

[5] = Preclinical pharmacokinetic study in rats; format: in vivo, Sprague-Dawley (SD) rats; conditions: male SD rats, oral gavage (p.o.) 10 mg/kg, plasma; for AUC(0-t) / Cmax / Tmax: rat
Experimental: Healthy adult Sprague-Dawley (SD) rats, male, 6-8 weeks old, weighing 200-300 g. EDTA-Na2 anticoagulant. Analytical balance, animal weighing scale, magnetic stirrer, refrigerated centrifuge, single-channel manual pipette, etc. About 10 mg of the test sample was precisely weighed, dissolved in a calculated volume of 5% DMSO, followed by addition of 10% solutol HS-15 and 85% normal saline. The mixture was sonicated and vortexed to homogeneity to obtain a solution with a concentration of 1 mg/mL. The solution was freshly prepared before use. Animals were housed in rat cages and fasted overnight (no less than 10 h) before the test, with free access to water. On the day of the test, animals were weighed and marked on the tail. Blank blood samples were collected before administration. The blood was collected via tail vein. • Route of administration: oral gavage (p.o.) • Dose: 10 mg/kg • Dosing volume: 10 mL/kg • Procedure: The rat was held upright with the left hand wearing bite-resistant glove. A 16-gauge gavage needle was inserted through the mouth into the esophagus. The needle was advanced gently without obvious resistance, and the drug solution was injected into the stomach. Whole blood (0.1 mL) were collected from each test animal before administration and at 0.5 […], and 24 h after administration into EDTA-Na2 anticoagulant tubes. The tubes were inverted 3-4 times for mixing, then centrifuged at 10,000 g for 5 min at 4 °C to separate plasma. Plasma samples were stored at -80 °C until analysis. Blood was collected via tail vein. […] The mixture was vortexed for 2 min and centrifuged at 10,000 g for 10 min at 4 °C. Processing of unknown plasma samples: 25 μL of drug-containing rat plasma was transferred, followed by addition of 25 μL of methanol and 200 μL of internal standard solution. The mixture was vortexed for 2 min and centrifuged at 10,000 g for 10 min at 4 °C. The supernatant was collected for LC-MS/MS analysis. A quantitative method for the determination of the test compound was established using a Shimadzu liquid chromatography system coupled with Triple Quad^TM 6500+ AB mass spectrometer. The concentration of the parent drug in plasma was determined. The plasma concentration-time curve was plotted, and the main pharmacokinetic parameters were calculated using a non-compartmental model in winnonlin Phoenix software.

T1 sequence (Q00534 whole entry): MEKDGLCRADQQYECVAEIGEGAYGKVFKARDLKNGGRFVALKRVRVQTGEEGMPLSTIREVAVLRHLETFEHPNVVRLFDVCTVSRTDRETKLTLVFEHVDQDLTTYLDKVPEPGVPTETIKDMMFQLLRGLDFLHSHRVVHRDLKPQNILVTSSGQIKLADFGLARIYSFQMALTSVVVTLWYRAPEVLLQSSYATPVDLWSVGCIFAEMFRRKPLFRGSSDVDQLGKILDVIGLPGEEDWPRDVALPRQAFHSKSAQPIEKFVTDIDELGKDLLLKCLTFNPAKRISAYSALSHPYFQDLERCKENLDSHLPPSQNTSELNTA
T1 sequence (P30281 whole entry partner): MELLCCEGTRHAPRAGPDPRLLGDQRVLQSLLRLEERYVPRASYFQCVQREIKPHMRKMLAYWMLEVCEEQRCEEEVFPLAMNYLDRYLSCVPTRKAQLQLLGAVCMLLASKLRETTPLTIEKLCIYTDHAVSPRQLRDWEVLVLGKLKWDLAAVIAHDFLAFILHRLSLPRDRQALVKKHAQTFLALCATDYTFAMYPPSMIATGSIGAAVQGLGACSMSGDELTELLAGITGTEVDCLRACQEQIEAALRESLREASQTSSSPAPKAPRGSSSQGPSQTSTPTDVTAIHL

SMILES | pIC50 ([1]; Homo sapiens, 120 h) | pIC50 ([2]; Homo sapiens, MCF7, 120 h) | pIC50 ([3]; Homo sapiens, 120 h) | further results
CC1CCN(C)c2nc3c(F)cc(-c4nc(N[C@@H]5CCOC[C@H]5O)ncc4Cl)cc3n21 (mixture of isomers) [TB-44, (3S,4R)-4-((5-chloro-4-(9-fluoro-1,4-dimethyl-1,2,3,4-tetrahydrobenzo[4,5]imidazo[1,2-a]pyrimidin-7-yl)pyrimidin-2-yl)amino)tetrahydro-2H-pyran-3-ol] | ≥ 6.30 | ≥ 6.30 | ≥ 6.30 | pIC50 [4]: 7.04
C[C@H]1CCN(C2CCC2)c2nc3c(F)cc(-c4nc(N[C@@H]5CCOC[C@H]5O)ncc4Cl)cc3n21 [TA-5] | ≥ 6.30 | 5.70 to 6.30 | ≥ 6.30 | –
C[C@H]1CCN(C2CCCC2)c2nc3c(F)cc(-c4nc(N[C@@H]5CCOC[C@H]5O)ncc4Cl)cc3n21 [TA-6] | ≥ 6.30 | ≥ 6.30 | 5.70 to 6.30 | –
COc1ccc(CN2CC[C@H](C)n3c2nc2c(F)cc(-c4nc(N[C@@H]5CCOC[C@H]5O)ncc4Cl)cc23)cc1 [TA-8] | 5.70 to 6.30 | ≥ 6.30 | ≥ 6.30 | –
[2H]C([2H])([2H])N1CC[C@H](C)n2c1nc1c(F)cc(-c3nc(N[C@@H]4CCOC[C@H]4O)ncc3Cl)cc12 [TA-28] | – | – | – | pIC50 [1]: ≥ 6.30; pIC50 ([2]; read-out: MCF7 IC50): ≥ 6.30; HL_ [5]: 1.58 h; AUC(0-t) ([5]; in vivo): 2490 ng·h/mL; Cmax ([5]; in vivo): 990 ng/mL; Tmax ([5]; in vivo): 30 min; pIC50 [3]: ≥ 6.30
C[C@H]1CCN(CC(F)(F)F)c2nc3c(F)cc(-c4nc(N[C@@H]5CCOC[C@H]5O)ncc4Cl)cc3n21 [TA-29] | ≥ 6.30 | ≥ 6.30 | ≥ 6.30 | AUC(0-t) ([5]; Sprague-Dawley): 1490 ng·h/mL; Cmax ([5]; Sprague-Dawley): 506 ng/mL; Tmax ([5]; Sprague-Dawley): 40.2 min; HL_ [5]: 1.60 h
C[C@H]1CCN(C2COC2)c2nc3c(F)cc(-c4nc(N[C@@H]5CCOC[C@H]5O)ncc4Cl)cc3n21 [TA-30] | < 5.70 | < 5.70 | < 5.70 | –
C[C@H]1CCN([C@H]2C[C@H](O)C2)c2nc3c(F)cc(-c4nc(N[C@@H]5CCOC[C@H]5O)ncc4Cl)cc3n21 [TA-31] | – | – | – | pIC50 [1]: 5.70 to 6.30; pIC50 ([2]; read-out: MCF7 IC50): < 5.70; pIC50 [3]: ≥ 6.30
C[C@H]1CCN([C@H]2C[C@@H](O)C2)c2nc3c(F)cc(-c4nc(N[C@@H]5CCOC[C@H]5O)ncc4Cl)cc3n21 [TA-42] | 5.70 to 6.30 | < 5.70 | 5.70 to 6.30 | –
CC(C)n1c(N2CCOC2=O)nc2c(F)cc(-c3nc(N[C@@H]4CCOC[C@H]4O)ncc3C(F)(F)F)cc21 [TB-27] | – | – | – | AUC(0-t) ([5]; Sprague-Dawley): 11500 ng·h/mL; Cmax ([5]; Sprague-Dawley): 1500 ng/mL; Tmax ([5]; Sprague-Dawley): 140 min; HL_ [5]: 3.69 h
CN1CCCn2c1nc1c(F)cc(-c3nc(N[C@@H]4CCOC[C@H]4O)ncc3Cl)cc12 [TB-40] | ≥ 6.30 | ≥ 6.30 | ≥ 6.30 | pIC50 [4]: 6.64
CN1CCCn2c1nc1c(F)cc(-c3nc(N[C@@H]4CCOC[C@H]4O)ncc3C(F)(F)F)cc12 [TB-41, (3S,4R)-4-((4-(9-fluoro-1-methyl-1,2,3,4-tetrahydrobenzo[4,5]imidazo[1,2-a]pyrimidin-7-yl)-5-(trifluoromethyl)pyrimidin-2-yl)amino)tetrahydro-2H-pyran-3-ol] | 5.70 to 6.30 | 5.70 to 6.30 | 5.70 to 6.30 | –
